Laboratory results reported in patent EP4489718B1, “METHOD FOR ENCAPSULATING A HYDROPHOBIC COMPOUND, SUSPENSION OF STRUCTURED LIPID PARTICLES ACCORDING TO THIS METHOD, AND USES OF SAID SUSPENSION” (SEDERMA, priority 2022, dated 2023).
Like-named read-outs stand apart in the source and are kept apart here.

Tests used:
[1] = Stability study on storage (retinol content by HPLC, colour, pH, particle size); type: physicochemical
Procedure: Samples were diluted in isopropanol. […] A calibration curve was performed. For an accelerated stability study, suspension samples according to the invention were stored for 365 days at room temperature (RT), 180 days at 40°C, 90 days at 5°C and 60 days at 50°C. The long-term stability study was evaluated at RT. Samples were analysed for characterization parameters at test times 0, 7, 14, 21, 30, 60, and 90, 180 and 365 days, depending on each storage condition. At each analysis time, a new bottle was opened for the first time. To assess the impact of product handling during stability, an additional bottle of each sample was stored at RT. This same bottle was opened and handled under an air atmosphere at each analysis time (7, 14, 21, 30, 60 and 90 days for all samples for RT) and the results were compared to the cases of the bottles newly opened for each analysis. All samples were handled without direct contact with light and under normal air conditions. No inert gas was used either to fill the bottles or to handle any sample.

[2] = type: physicochemical
Procedure: Aim: to study whether the encapsulated retinol according to the invention supported UV irradiation and to compare with the non-encapsulated free retinol (solubilized in soybean oil).
Protocol: two samples, one containing free retinol and the other encapsulated retinol, were irradiated for 1 hour at about 40cm from the bulb of the solar lamp.
Retinol assay: by HPLC (UV detection at 325nm), the samples having been solubilized and diluted in isopropyl alcohol and the quantification having been carried out using a standard curve ranging from 2 to 150 ppm of retinol.

[3] = physchem; type: physicochemical
Description: The Franz diffusion cell is the device most used to examine the release profiles of an active ingredient encapsulated in the capsules according to the invention. […] The product to be tested is placed in the upper chamber while the lower chamber collects the recipient fluid which has passed through the membrane. The rate and mechanism of release can be obtained by mathematical modelling. The rate can be calculated using the following first-order equation: […] And the release mechanism can be obtained using the Korsmeyer-Peppas model equation: Mt/M∞ = […] [formula] In which: • t is the release time • Mt is the quantity of released active at t time • M∞ is the total quantity of released active • Mt/M∞ being the fraction of released active at t time; • k is a kinetic constant, a measure of the release rate; and • n the diffusional exponent which gives an indication of the release mechanism of the active and takes on different values depending on the geometry of the release device. […] Selected membrane: […] Eight Franz cells containing the release medium and the membrane were prepared and placed in a temperature-controlled water bath of 32°C. […] The amount added to the membrane was 20% of the saturation concentration to ensure flow conditions. Samples were taken at selected intervals of 0.5 to 76 h with replacement of fresh medium. All samples collected were analysed for retinol content by HPLC on the day of the experiment. […] The mean of the four cells in both cases was plotted against time and used to apply the mathematical models. […] The release mechanism was obtained by the Korsmeyer-Peppas equation.

Retinol content in w/w % ([1]; storage 5°C, 0 days, suspension: new bottle for each test): 3.11 w/w %
Retinol content in w/w % ([1]; storage 5°C, 7 days, suspension: new bottle for each test): 3.14 w/w %
Retinol content in w/w % ([1]; storage 5°C, 14 days): 2.77 w/w %
Retinol content in w/w % ([1]; storage 5°C, 21 days): 0.42 w/w %
Retinol content in w/w % ([1]; storage 5°C, 30 days, suspension: new bottle for each test): 0.0 w/w %
Retinol content in w/w % ([1]; storage 40°C, 0 days, suspension: new bottle for each test): 3.11 w/w %
Retinol content in w/w % ([1]; storage 40°C, 7 days, suspension: new bottle for each test): 2.79 w/w %
Retinol content in w/w % ([1]; storage 40°C, 14 days): 0.89 w/w %
Retinol content in w/w % ([1]; storage 40°C, 21 days): 0.0 w/w %
Retinol content in w/w % ([1]; storage 40°C, 30 days, suspension: new bottle for each test): 0.0 w/w %
Retinol content in w/w % ([1]; storage 50°C, 0 days, suspension: new bottle for each test): 3.11 w/w %
Retinol content in w/w % ([1]; storage 50°C, 7 days, suspension: new bottle for each test): 2.51 w/w %
Retinol content in w/w % ([1]; storage 50°C, 14 days, suspension: new bottle for each test): 0.10 w/w %
Retinol content in w/w % ([1]; storage 50°C, 21 days, suspension: new bottle for each test): 0.0 w/w %
Retinol content in w/w % ([1]; storage 50°C, 30 days, suspension: new bottle for each test): 0.0 w/w %
Retinol content in w/w % ([1]; storage RT, 0 days, suspension: new bottle for each test): 3.11 w/w %
Retinol content in w/w % ([1]; storage RT, 7 days, suspension: new bottle for each test): 2.76 w/w %
Retinol content in w/w % ([1]; storage RT, 14 days, suspension: new bottle for each test): 2.40 w/w %
Retinol content in w/w % ([1]; storage RT, 21 days, suspension: new bottle for each test): 0.23 w/w %
Retinol content in w/w % ([1]; storage RT, 30 days, suspension: new bottle for each test): 0.25 w/w %
Actual content of retinol (in weight %) ([2]; After 1h of irradiation, about 40cm from solar lamp): 5.72 +/- 0.07 weight %
Actual content of retinol (in weight %) ([2]; Control (not irradiated)): 10.49 +/- 0.34 weight %
retinol degradation peaks in the chromatograms of the release samples [3]: degradation peaks from 10h
half-life ([3]; 3% tween 80 in water): 2.03 h
release rate ([3]; Franz cell, PVDF 0.1 µm membrane, 3% Tween 80 / 97% water, 32°C, first-order model): 0.00089 min⁻¹
SMILES: CC1=C(/C=C/C(C)=C/C=C/C(C)=C/CO)C(C)(C)CCC1 [Free retinol, retinol]
